According to paper PMC10683472, “Deep Learning-Driven Library Design for the De Novo Discovery of Bioactive Thiopeptides” (ACS Central Science, 2023):
Like-named read-outs stand apart in the source and are kept apart here. Where a SMILES comes first, the peptide text is derived from it. Where no end group is shown, it is not given here. pyridine‑bisazole = not defined here

T1: IRAK4 (Homo sapiens, UniProt Q9NWZ3)
T1 sequence (Q9NWZ3 1-460): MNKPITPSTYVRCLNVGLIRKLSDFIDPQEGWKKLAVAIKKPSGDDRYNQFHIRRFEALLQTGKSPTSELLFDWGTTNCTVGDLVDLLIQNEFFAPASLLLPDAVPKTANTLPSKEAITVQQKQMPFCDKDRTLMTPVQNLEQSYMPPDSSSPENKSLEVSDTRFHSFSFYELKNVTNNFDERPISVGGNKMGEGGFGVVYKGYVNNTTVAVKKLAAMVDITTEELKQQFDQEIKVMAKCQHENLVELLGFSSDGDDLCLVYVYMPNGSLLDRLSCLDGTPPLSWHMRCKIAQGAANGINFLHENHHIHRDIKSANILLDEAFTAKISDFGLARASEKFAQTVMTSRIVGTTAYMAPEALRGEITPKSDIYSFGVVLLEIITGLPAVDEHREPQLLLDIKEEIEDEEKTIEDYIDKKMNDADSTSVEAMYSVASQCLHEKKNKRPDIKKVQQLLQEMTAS

T2: Biotinylated IRAK4 (kinase domain, amino acids 1-460; NP_057207.2) (Homo sapiens, UniProt Q9NWZ3)
T2 construct: acids 1-460; NP_057207.2) was purchased from Carna Biosciences; purchased Carna Biosciences (Kobe, Japan)
T2 sequence (Q9NWZ3 1-460): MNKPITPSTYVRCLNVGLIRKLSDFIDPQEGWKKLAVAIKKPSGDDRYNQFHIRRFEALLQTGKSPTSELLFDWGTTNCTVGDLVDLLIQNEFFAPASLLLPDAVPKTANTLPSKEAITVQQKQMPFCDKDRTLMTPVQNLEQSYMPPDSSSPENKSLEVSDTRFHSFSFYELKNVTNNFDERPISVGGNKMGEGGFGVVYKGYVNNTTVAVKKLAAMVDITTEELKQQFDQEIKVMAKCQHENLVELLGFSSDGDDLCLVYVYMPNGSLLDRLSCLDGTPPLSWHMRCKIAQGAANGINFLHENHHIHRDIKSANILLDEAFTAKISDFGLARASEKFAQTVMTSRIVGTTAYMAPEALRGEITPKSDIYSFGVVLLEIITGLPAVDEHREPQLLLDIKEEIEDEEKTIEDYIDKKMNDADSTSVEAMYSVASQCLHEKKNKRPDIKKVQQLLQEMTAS

T3: toll-like receptor 10, extracellular domain (UniProt Q9BXR5 20-576)
T3 construct: toll-like receptor 10 (TLR10), extracellular domain; The extracellular domain is stated for the SPR experiment; also called TLR10; TLR10 cell surface receptor
T3 sequence (looked up): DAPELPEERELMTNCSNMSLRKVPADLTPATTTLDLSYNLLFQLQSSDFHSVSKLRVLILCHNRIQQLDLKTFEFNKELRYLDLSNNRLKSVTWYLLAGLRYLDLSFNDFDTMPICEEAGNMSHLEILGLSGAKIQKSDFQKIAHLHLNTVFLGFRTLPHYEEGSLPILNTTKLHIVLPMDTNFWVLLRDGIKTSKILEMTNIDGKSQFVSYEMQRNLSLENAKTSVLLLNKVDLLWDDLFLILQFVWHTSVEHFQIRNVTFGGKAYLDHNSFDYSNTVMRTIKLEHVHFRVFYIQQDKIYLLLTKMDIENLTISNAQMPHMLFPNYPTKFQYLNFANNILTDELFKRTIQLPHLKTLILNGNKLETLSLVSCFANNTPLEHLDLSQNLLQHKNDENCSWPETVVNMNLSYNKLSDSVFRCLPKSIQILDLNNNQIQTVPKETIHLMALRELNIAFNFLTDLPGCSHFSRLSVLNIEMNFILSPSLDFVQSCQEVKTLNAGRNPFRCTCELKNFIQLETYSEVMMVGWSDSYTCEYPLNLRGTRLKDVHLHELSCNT

T4: interleukin-1 receptor-associated kinase 4 (UniProt Q9NWZ3 1-460)
T4 construct: interleukin-1 receptor-associated kinase 4 (IRAK4); Immobilised on magnetic beads in the mRNA display experiments; also called IRAK4; IRAK4 kinase
T4 sequence (looked up): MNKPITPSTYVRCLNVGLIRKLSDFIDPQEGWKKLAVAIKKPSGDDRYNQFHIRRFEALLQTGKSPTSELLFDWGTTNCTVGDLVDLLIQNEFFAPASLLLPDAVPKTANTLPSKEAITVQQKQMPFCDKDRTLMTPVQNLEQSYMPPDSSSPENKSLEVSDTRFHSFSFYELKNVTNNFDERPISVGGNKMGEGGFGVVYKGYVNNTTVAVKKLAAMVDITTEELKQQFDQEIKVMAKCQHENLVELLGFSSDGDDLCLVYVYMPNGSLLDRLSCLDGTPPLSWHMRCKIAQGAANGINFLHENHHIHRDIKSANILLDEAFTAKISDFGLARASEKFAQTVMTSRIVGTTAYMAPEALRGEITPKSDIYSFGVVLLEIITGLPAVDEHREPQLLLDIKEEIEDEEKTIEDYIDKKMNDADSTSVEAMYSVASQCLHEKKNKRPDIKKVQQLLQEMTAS


What was measured:
IRAK4 [1] = target: T1, IRAK4; assay: Single-round mRNA display binding assay (qPCR), IRAK4; design: acids 1-460; NP_057207.2) was purchased from Carna Biosciences; purchased Carna Biosciences (Kobe, Japan); conditions: ratio of cDNA recoveries (qPCR), IRAK4 pulldown over beads only, single-round selection
THP1-XBlue cells = assay: Cell viability with Cell Counting Kit-8
Protocol: (§1) 2.13. NF-kB signaling pathway inhibition assay
(§2) THP-1 Cellular Assay. THP1-XBlue cells containing an NF-kB-inducible secreted embryonic alkaline phosphatase (SEAP) reporter gene (InvivoGen) were seeded to 96-well assay plates (10^5 cells/well) with RPMI 1640 culture medium containing 10% fetal calf serum. The cells were pre-treated with various concentration of analyte thiopeptide inhibitor in 0.1% DMSO and incubated at 37 °C for 6 h. LPS-EK (30 ng/mL, InvivoGen) was subsequently added to activate the NF-kB signalling for 20 h. To quantitate SEAP activity, supernatants were harvested (300 g, 5min) and mixed with Quanti-Blue (InvivoGen) detection reagent following the manufacturer’s instructions.
(§3) Cells were assayed with cell counting kit-8 in parallel to rule out potential cytotoxicity. The plates

[2] = target: T2, Biotinylated IRAK4 (kinase domain, amino acids 1-460; NP_057207.2); assay: Surface plasmon resonance binding to IRAK4
Source text: Reagents were purchased from Nacalai Tesque, Wako Pure Chemical Industries, Sigma-Aldrich Japan, or TCI Chemicals and were used as received. Biotinylated IRAK4 (kinase domain, amino acids 1-460; NP_057207.2) was purchased from Carna Biosciences (Kobe, Japan). Recombinant human TLR10 Fc Chimera protein (extracellular domain, amino acid 20-576; Q9BXR5) was purchased from R&D system (#6619-TR-050). Anti-HA magnetic beads were from Pierce Thermo Fisher Scientific (#88836). Magnetic beads with immobilized streptavidin were from Invitrogen (Dynabeads Streptavidin C1, # 65001). Magnetic beads with immobilized streptavidin were from Invitrogen (Dynabeads Streptavidin M280, #11206D).
Protein purification and synthesis of Streptomyces lactacystinaeus tRNAGlu were done as previously described.1–3 Protein concentration measurements were carried out on a Nanodrop 2000c spectrophotometer (Thermo Scientific) equipped with a 5 mm pathlength quartz cuvette using extinction coefficient values calculated with ExPASy ProtParam tool (https://web.expasy.org/protparam).
Biochemical measurements (sections 2.10 – 2.14) were performed in triplicate or more. Most experiments were reproduced to an analogous outcome at least once. In the cases where the determination of biophysical parameters involved cell assay (CP50 and IC50), reported are standard errors of the fit; otherwise, error bars are standard deviations.
RNA extracted from the gel with 300 mM NaCl were collected by ethanol precipitation followed by centrifugation (15300 g for 15 min) and dissolved in water for storage. tRNAini was aminoacylated with eFx using biotin-Phe-CME as a substrate. tRNAini (25 µM) and eFx (25 µM) were incubated with biotin-Phe-CME (5 mM) in HEPES-KOH buffer (50 mM; pH 7.5) containing 600 mM MgCl2 on ice for 2 h. The reactions were stopped with the addition of 300 mM NaOAc (pH 5.2), and precipitated with ethanol. Precipitated RNA was recovered by centrifugation (15300 g for 15 min). The pellet was washed with 70% ethanol in water (v/v) containing 100 mM NaOAc (pH 5.2) and used in translation.
2.10. Surface plasmon resonance
Binding affinities between the thiopeptides and IRAK4/TLR10 were measured with a Biacore 8K instrument (GE Healthcare) at 25 °C. The assay buffer for IRAK4 binding analysis contained 50 mM Tris (pH 7.5), 150 mM NaCl, 10 mM MgCl2, 0.05% (v/v) tween-20 and 0.1% (v/v) DMSO. The […]
Biotinylated IRAK4 was immobilized on a Biacore CAP chip (GE Healthcare) to a surface density […]
step was allowed to proceed for 480 s. Kinetic parameters and affinities of the interaction were […]
provided by the manufacturer. The interaction sensorgrams were measured as single -cycle […]
Kinetic parameters and affinities of the
Evaluation Software v.3.0 (GE Healthcare).

IRAK4 [3] = target: T1, IRAK4; assay: biochemical
[4] = tested on: lipopolysaccharide-induced NF-κB signaling in THP1-XBlue cells; assay: NF-kB signaling pathway inhibition assay (SEAP reporter, LPS-stimulated); format: cell-based; conditions: THP1-XBlue monocytes, 6 h pre-treatment, LPS-EK 30 ng/mL, SEAP read 20 h after induction
Protocol: as §1, §2, §3

IRAK4 [5] = target: T1, IRAK4; assay: mRNA display affinity selection against IRAK4, NGS abundance; format: binding; design: acids 1-460; NP_057207.2) was purchased from Carna Biosciences; purchased Carna Biosciences (Kobe, Japan); conditions: IRAK4 selection, NGS abundance rank
Serum stability assay = format: in vitro ADME; conditions: pH 7.6; human serum, 37 °C, LC/MS; read-out: serum stability τ1/2 (converted)
[6] = tested on: HaloTag expressing HEK293H cells; assay: Chloroalkane penetration assay (CAPA); conditions: 18 h, chloroalkane tag-containing derivatives IR1-ct and IR5-ct
Source text: The role of IRAK4 as a kinase acting downstream of TLR and interleukin-1 receptors to phosphorylate IRAK1 and transduce immunological signals is well-established.[37] […] Therefore, we investigated the inhibitory activity of thiopeptides IR1, 5, 8, and 11. […] We first prepared chloroalkane tag-containing derivatives, IR1-ct and IR5-ct (S.I. 5.3), and utilized them in a chloroalkane penetration assay[49] to test their cellular uptake. […]

[7] = target: T3, toll-like receptor 10, extracellular …; assay: SPR; synthetic thiopeptides and target protein; conditions in S.I. 2.10 (not shown); conditions: both partners purified
[8] = target: T4, interleukin-1 receptor-associated …; assay: as above; conditions: both partners purified
[9] = target: T4, interleukin-1 receptor-associated …; assay: cell-based or functional assay

Molecule	display P/N ratio (IRAK4 [1])	cytotoxicity (Cell Counting Kit-8) (THP1-XBlue cells)	koff [2] [s⁻¹]	kon [2] [M⁻¹ s⁻¹]	IC50 (IRAK4 [3]) [µM]	IC50 [4] [µM]	rank in pulldown(+) (IRAK4 [5])	rank in pulldown(–) (IRAK4 [5])	half-life at 10 µM (Serum stability assay) [h]	CP50 (midpoint internalization concentration) [6] [µM]	cytotoxicity (Cell Counting Kit-8) (THP1-XBlue cells; at the tested concentrations)	koff ([2]; SPR, IRAK4, read-out: koff) [s⁻¹]	kon ([2]; SPR, IRAK4, read-out: kon) [M⁻¹ s⁻¹]	Kd [7] [µM]	Kd [8] [µM]	IC50, lipopolysaccharide-induced NF-κB signaling (secreted alkaline phosphatase reporter) in THP1-XBlue monocytes [9] [µM]
C=C1NC(=O)C(=CC)NC(=O)[C@H](Cc2c[nH]c3ccccc23)NC(=O)[C@H](Cc2c[nH]cn2)NC(=O)[C@H](Cc2c[nH]c3ccccc23)NC(=O)[C@H]([C@@H](C)O)NC(=O)[C@H]([C@@H](C)CC)NC(=O)[C@H](Cc2ccccc2)NC(=O)[C@H](CCC(N)=O)NC(=O)[C@H](CCCNC(=N)N)NC(=O)[C@H](CCCCN)NC(=O)[C@H](CCCC)NC(=O)[C@H](CO)NC(=O)[C@H](Cc2c[nH]c3ccccc23)NC(=O)c2ccc(-c3nc(C(=O)OC)cs3)nc2-c2csc1n2 [IR1] (HELM PEPTIDE1{W.S.[Nle].K.R.Q.F.I.T.W.H.W.[CC=C(N[*:1])C(=O)[*:2]]}|CHEM1{[C=C(N[*:2])c1nc(-c2nc(-c3nc(C(=O)OC)cs3)ccc2C(=O)[*:1])cs1]}$PEPTIDE1,CHEM1,1:R1-1:R1|PEPTIDE1,CHEM1,13:R2-1:R2$$$V2.0; bridges inferred)	1829	not cytotoxic	0.00054	2930	3.1 ± 0.3	7	3	1	3.9 ± 0.1	2.4						
C=C1NC(=O)[C@H](CCCCN)NC(=O)[C@H](Cc2ccc(O)cc2)NC(=O)[C@H]([C@@H](C)CC)NC(=O)[C@H](CCCNC(=N)N)NC(=O)[C@H](CCCNC(=N)N)NC(=O)[C@H](CCCCN)NC(=O)[C@H](Cc2ccccc2)NC(=O)[C@H](CC(C)C)NC(=O)[C@H](CCSC)NC(=O)[C@H](CO)NC(=O)[C@H](Cc2c[nH]c3ccccc23)NC(=O)c2ccc(-c3nc(C(=O)OC)cs3)nc2-c2csc1n2 [IR5] (HELM PEPTIDE1{W.S.M.L.F.K.R.R.I.Y.K}|CHEM1{[C=C(N[*:2])c1nc(-c2nc(-c3nc(C(=O)OC)cs3)ccc2C(=O)[*:1])cs1]}$PEPTIDE1,CHEM1,1:R1-1:R1|PEPTIDE1,CHEM1,11:R2-1:R2$$$V2.0; bridges inferred)	376				5.1 ± 0.4	7.8	1	2	1.3 ± 0.02	14.8	not cytotoxic	0.0037	2.92e+06			
SWSLELSRVNVVIHSCSC (bridge (positions not given here) via pyridine‑bisazole; reading uncertain; also: macrocyclic lactazole-like thiopeptide with pyridine-bisazole moiety, places not given here, dehydroamino acids, places not given here) [thiopeptide TL20 (synthetic)]														0.3		
SWSMLFKRRIYKSCSC (bridge (positions not given here) via pyridine‑bisazole; reading uncertain; also: macrocyclic lactazole-like thiopeptide with pyridine-bisazole moiety, places not given here, dehydroamino acids, places not given here) [thiopeptide IR5 (synthetic)]															0.0013	7.8
